Test results taken from patent publication US7659293B2, “α-Amino-N-hydroxy-acetamide derivatives” (Novartis AG, priority 2001, dated 2010).
Counter-ions that a name gives are not always drawn.

Target: T1, MMP9 (Gelatinase-B) (Homo sapiens, UniProt P14780)
T1 construct: endogenous in cells; host or cells: THP1 human monocytic leukemia cells, TPA-stimulated; purified from culture medium
Assay: Assay of MMP9 (fluorogenic peptide)
Format: biochemical
Settings: mean ± SEM of three independent experiments
Experimental: MMP9 is prepared form the culture medium of THP1 human monocytic leukemia cells treated with TPA. THP1 cells are maintained in a culture of DMEM/F-12 with 10% FCS and stimulated to produce pro-MMP9 with TPA (1 nM) in serum-free medium for 48 h. All purification procedures are carried out at 4° C. The 1 liters of culture medium is concentrated to 100 ml by Centricon (Amicon) and applied to a column (1×8 cm) of gelatin-sepharose (Pharmacia) equilibrated with 50 mM Tris-Cl (pH=8.0), 300 mM NaCl. The fraction containing pro-MMP-9 is eluted with 10% DMSO in 50 mM Tris-Cl (pH=8.0), 300 mM NaCl, then dialyzed against 50 mM Tris-Cl (pH 7.5), 150 mM NaCl. The fraction is concentrated by Centricon and subjected to column chromatography of Sephadex G200 (2×20 cm) equilibrated with 50 mM Tris-Cl (pH=7.5) containing 150 mM NaCl. The purified Pro-MMP9 is stored at −80° C. as a stock and the necessary amount of pro-form is used for activation. Pro-MMP9 is activated with 1 mM aminophenyl mercury acetate (APMA, ICN Pharmaceuticals) in 50 mM Tris-Cl (pH=7.5) containing 150 mM NaCl, 10 mM CaCl2 and 0.05% Brij-35 (MMP Assay Buffer) for 18 h at 37° C., and the APMA is removed by extensive dialysis against MMP Assay Buffer. […]
The activated MMP-9 (82 kDa) is then used to screen compounds. […] The increase of fluorescence is monitored at 460 nm with excitation at 355 nm. […]

T1 sequence (P14780 107-707 limits assumed): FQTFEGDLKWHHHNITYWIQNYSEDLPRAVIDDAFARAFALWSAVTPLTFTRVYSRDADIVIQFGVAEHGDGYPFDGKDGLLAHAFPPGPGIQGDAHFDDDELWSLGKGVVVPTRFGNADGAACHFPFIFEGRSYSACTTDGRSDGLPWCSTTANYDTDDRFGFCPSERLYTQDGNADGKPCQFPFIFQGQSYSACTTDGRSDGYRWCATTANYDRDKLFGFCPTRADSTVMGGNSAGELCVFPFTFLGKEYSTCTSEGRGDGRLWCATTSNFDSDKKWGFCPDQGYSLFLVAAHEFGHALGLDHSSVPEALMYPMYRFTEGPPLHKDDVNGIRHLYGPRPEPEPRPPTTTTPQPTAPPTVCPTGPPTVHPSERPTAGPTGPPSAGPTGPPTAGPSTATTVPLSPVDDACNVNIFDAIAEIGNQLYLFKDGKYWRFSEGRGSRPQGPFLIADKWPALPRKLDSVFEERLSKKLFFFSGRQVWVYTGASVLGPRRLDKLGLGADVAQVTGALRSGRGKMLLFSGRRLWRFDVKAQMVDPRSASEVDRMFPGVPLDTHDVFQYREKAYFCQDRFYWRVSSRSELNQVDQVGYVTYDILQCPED

- IC50: 2.57 ± 0.27 nM
Structure (SMILES): CN(C)c1ccc(CN(CC(=O)NO)S(=O)(=O)c2ccc(OCC3CC3)cc2)cc1 [Example 2, 2-[(4-Cyclopropylmethoxy-benzenesulfonyl)-(4-dimethylamino-benzyl-amino]-N-hydroxy-acetamide HCl salt]
